Measured values from patent US8715949B2, “Applications of the binding interaction of proanthocyanidins with bacteria and bacterial components” (priority 2006, dated 2014).

Experiments:
[1] = Stationary LPS-FITC binding assay on glass waveguide-immobilized PACs; parameters: species or system E. coli; conditions: patterned from 10 mg/mL solutions; LPS-FITC incubated 1 hour
Text: To determine the ability of PAC materials to effectively bind bacteria and bacterial cell components upon immobilization to a solid support, PACs from cranberry and grape juices were covalently attached to the surface of a glass microscope slide (waveguide) using a modification of a common technique used for protein immobilization (Rowe et al., Anal. Chem., 71, 3846 (1999)). Catechin monomer and buffer only areas were also included as controls. Briefly, the waveguides, glass microscope slides (Daigger, Wheeling, Ill.), were cleaned by immersion in potassium hydroxide/methanol solution (Cras et al., Biosens. Bioelectron., 14, 683 (1999)) followed by rinsing and drying. The clean waveguides were then incubated with 2% (3-mercaptopropyl)triethoxysilane (Pierce Chemicals, Rockford, Ill.) in toluene for 45 minutes followed by rinsing and drying. The slides were immersed in 1.8 mM N-[p-maleimidophenyl]isocyanate (PMPI) in ethanol for 1 hour. The maleimide-group of PMPI reacts with the sulfhydryl-group provided by the silane reaction leaving the isocyanate-group free to react with the hydroxyl-groups of PACs. […]
The ability of the immobilized PACs to bind LPS was investigated using a stationary assay. […] Slides were imaged using evanescent wave fluorescence spectroscopy with excitation at 496 nm and emission collected above 515 nm. […]

[2] = system: HEK-CD14-TLR4/MD2 cells; assay: Cytotoxicity, cell proliferation assay (CellTiter96); assay type: cell-based, human; conditions: 48 h culture
Description: Cellular toxicity was measured using a […] cell proliferation assay (CellTiter96™, Promega). HEK-CD14-TLR4/MD2 cells were seeded into the wells of a 96-well plate (1×10^4 cells/well) and cultured with a dose range of test compounds for 48 h prior to assay according to the manufacturer's instructions.

[3] = Pull-down of FITC-LPS by PAC beads after equilibration with lipid A; assay type: binding, E. coli; conditions: lipid A concentrations as high as 100 μM
Description: Fluorescence-based pull down assays for lipopolysaccharide (LPS) were conducted in 50 mM TRIS at pH 8.0 using Sepharose-immobilized PACs and agarose-immobilized polymyxin B (Sigma-Aldrich, St. Louis, Mo.). Immobilized capture molecules and LPS were incubated at room temperature for 1 hour with constant agitation followed by rinsing and transfer to a 96-well plate. The fluorescence of the FITC-labeled LPS (from E. coli 055:B5; Sigma-Aldrich) was measured using a Tecan XSafire monochrometer-based micro plate reader at 495 nm excitation and 520 nm emission (5 nm bandwidths).
To further investigate this potential interaction, an assay for the presence of FITC-LPS using PAC-beads was conducted after equilibration of the PAC beads with varying concentrations of lipid A (FIG. 11). Assays were conducted with 3 μg/mL FITC-LPS (approx. 3 nM).

[4] = system: HEK 293 cells stably expressing human CD14 and TLR4/MD2; assay: LPS membrane binding in HEK-CD14-TLR4/MD2 cells; assay type: cell-based; conditions: 25 nM LPS, 1.5 h, 37° C.; 0.5 μM PAC; antibodies 500 nM in binding sites
Description: Human embryonic kidney cells (HEK 293) stably expressing human CD14 and TLR4/MD2 (HEK-CD14-TLR4/MD2; Invivogen) were grown in chambered wells and incubated with 25 nM LPS (E. coli serotype 055:B5, Sigma) in the absence or presence of 0.5 μM LH20 PAC (Dial>6K) for 1.5 h at 37° C. […] After incubation, the cells were washed with PBS (10 min) twice and either fixed (with 3.7% paraformaldehyde) to assess LPS membrane binding or fixed and permeabilized (with 0.1% Triton X-100) to determine LPS internalization. After blocking with 1% normal goat serum, membrane bound or internalized LPS was detected using a goat anti-LPS antibody (O/K serotype-specific, Abeam) conjugated to fluorescein. Nuclei were counterstained with DAPI. Imaging was performed using an Olympus IX-71 microscope. The relative amounts of membrane-associated or intracellular fluorescence were quantified by image analysis using Image J software (NIH, v. 1.37). Data is reported as the mean channel fluorescence from membrane-associated or internalized LPS and represents the analysis of 10 to 20 cells from each sample (minimum 10 measurements per each cell). Merged images were produced using Photoshop CS2 (ver. 9).

Substance	binding of LPS-FITC by substance immobilized on glass waveguide [1]	concentrations at which toxicity was not elicited [2]	inhibition of FITC-LPS binding by immobilized PACs at high lipid A concentration [3] [%]	decrease in membrane-bound LPS [4]
catechin	no binding even at the highest concentrations tested			
diphosphoryl lipid A		below 3 μM	≤ 80	did not significantly reduce LPS membrane binding
